Reference: patent US8188078B2 (Sanofi-Aventis, priority 2007, dated 2012)

Tests used:
RON = RON (Homo sapiens, UniProt Q04912); assay: Test B: HTRF RON test in 96-well format; format: biochemical
Procedure: B) HTRF RON Test in 96-Well Format
The inhibitory potency (IC50) of molecules on the enzymatic activity of kinase phosphorylation RON is determined by the HTRF technique. The activity of the kinase is evaluated by measuring the phosphorylation of the substrate polyGAT by the enzyme, in the presence of ATP.
Final RON 5 nM is incubated in the presence of the molecule to be tested (for a final concentration range from 0.17 nM to 10 μM, final DMSO 3%) in buffer MOPS 10 mM pH 7, DTT 1 mM, Tween 20 0.01%. This pre-incubation is performed in 96 half-well black plates in a volume of 35 μl for 30 minutes at room temperature.
The reaction is initiated by adding 15 μl of a mixture of substrates constituted of biotinylated poly-(GAT) 1 μg/ml final and ATP 10 μM final in the presence of MgCl2 5 mM final for a final volume of 50 μl.
After incubation for 30 min at room temperature, the reaction is stopped with 30 μl of a mixture of Hepes 100 mM final pH 7, potassium fluoride 400 mM final, BSA 0.1% and EDTA 133 mM in the presence of 80 ng per well of antibodies Streptavidin ITS-XL665 Cis-Bio Int. and 18 ng per well of anti-phosphotyrosine PT66 labelled with europium cryptate.
After incubation for 2 hours at room temperature, reading is carried out at 2 wavelengths 620 nm and 665 nm in a Genios TECAN reader for the TRACE/HTRF technique and the percentage inhibition is calculated according to the 665/620 ratios.

MKN45 cells = assay: Test D: cellular proliferation by 14C-thymidine pulse, MKN45 cells; format: cell-based; conditions: Homo sapiens, MKN-45, cellular proliferation by 14C-thymidine pulse; cell line not stated (HCT116 or MKN45)
Procedure: D) Measurement of Cellular Proliferation by 14C-Thymidine Pulse
The cells are sown in Cytostar 96-well plates under 180 μl for 4 hours at 37° C. and 5% CO2: The HCT116 cells at a rate of 2500 cells per well in DMEM medium+10% foetal calf serum+1% of L-glutamine and the MKN45 cells at a rate of 7500 cells per well in RPMI medium+10% foetal calf serum+1% of L-glutamine. After said incubation for 4 hours, the products are added under 10 μl in 20-times concentrated solution according to the method of dilution stated for ELISA. The products are tested at 10 concentrations in duplicate from 10000 nM to 0.3 nM in steps of 3.
After treatment for 72 h, add 10 μl of 14C-thymidine at 10 μCi/ml to obtain 0.1 μCi per well. The incorporation of 14C-thymidine is measured on a Micro-Beta (Perkin-Elmer) after 24 hours of pulse and 96 h of treatment.
All the stages of the test are automated on the BIOMEK 2000 or TECAN stations.

c-MET = target: T1, c-MET (Homo sapiens, UniProt P08581); assay: Test A: HTRF Met test in 96-well format; format: biochemical
T1 construct: The recombinant DNA His-Tev-MET (956-1390) in pFastBac(Invitrogen); His (N, cleaved yes); Tev (TEV protease site) (N, cleaved yes); made in house; host or cells: SF21 insect cells (baculovirus, pFastBac)
T1 sequence (P08581 956-1390): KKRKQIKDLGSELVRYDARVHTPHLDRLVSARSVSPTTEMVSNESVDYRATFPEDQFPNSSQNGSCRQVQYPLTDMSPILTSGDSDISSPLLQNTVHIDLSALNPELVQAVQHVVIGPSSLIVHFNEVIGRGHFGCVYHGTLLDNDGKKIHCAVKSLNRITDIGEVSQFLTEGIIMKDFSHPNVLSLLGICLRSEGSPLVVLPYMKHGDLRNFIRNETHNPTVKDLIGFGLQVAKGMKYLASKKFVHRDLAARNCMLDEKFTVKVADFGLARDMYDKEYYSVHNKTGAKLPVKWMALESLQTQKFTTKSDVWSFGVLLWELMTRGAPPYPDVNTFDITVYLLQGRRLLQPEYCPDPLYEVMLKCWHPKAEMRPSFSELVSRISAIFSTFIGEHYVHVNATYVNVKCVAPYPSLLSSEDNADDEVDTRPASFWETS
Procedure: I) Expression and Purification of MET, Cytoplasmic Domain
The recombinant DNA His-Tev-MET (956-1390) in pFastBac(Invitrogen) is transfected in insect cells and after several stages of viral amplification, the final stock of baculovirus is tested for expression of the protein of interest.
After infection for 72 h at 27° C. with the recombinant virus, the SF21 cell cultures are harvested by centrifugation and the cellular deposits are stored at −80° C.
The cellular deposits are resuspended in the lysis buffer (buffer A [50 mM HEPES, pH 7.5, 250 mM NaCl, Glycerol 10%, TECP 1 mM]; +cocktail of protease inhibitors Roche Diagnostics without EDTA, ref 1873580), stirred at 4° C. until homogeneous, then lysed mechanically using apparatus of the “Dounce” type.
After centrifugation, the lysis supernatant is incubated for 2 h at 4° C. with Nickel Chelate resin (His-Trap 6 Fast Flow™, GE HealthCare). After washing with 20 volumes of Tp A, the suspension is packed in a column, and the proteins are eluted with a gradient of buffer B ([…]+290 mM imidazole).
The fractions containing the protein of interest with a view to electrophoretic analysis (SDS PAGE) are collected, concentrated by ultrafiltration (cut-off 10 kDa) and injected in an exclusion chromatography column (Superdex™ 200, GE HealthCare) equilibrated with buffer A.
After enzymatic cleavage of the tag Histidine, the protein is reinjected in a new IMAC Nickel Chelate chromatography column (His-Trap 6 Fast Flow™, GE HealthCare) equilibrated with Buffer A. The fractions eluted with a gradient of buffer B and containing the protein of interest after electrophoresis (SDS PAGE), are finally collected and stored at −80° C.
For the production of autophosphorylated protein, the preceding fractions are incubated for 1 h at room temperature after adding ATP 2 mM, MgCl2 2 mM, and Na3VO4 4 mM. After stopping the reaction with 5 mM of EDTA, the reaction mixture is injected in a HiPrep desalting column (GE HealthCare) equilibrated beforehand with buffer A+Na3VO4 4 mM; the fractions containing the protein of interest (SDS PAGE analysis) are collected and stored at −80° C. The degree of phosphorylation is verified by mass spectrometry (LC-MS), and by peptide mapping.
A) HTRF Met test in 96-well format
In a final volume of 50 μl of enzymatic reaction mixture, final c-MET 5 nM is incubated in the presence of the molecule to be tested (for a final concentration range from 0.17 nM to 10 μM, final DMSO 3%) in buffer MOPS 10 mM pH 7.4, DTT 1 mM, Tween 20 0.01%. The reaction is initiated by the substrate solution to obtain the final concentrations of poly-(GAT) 1 μg/ml, ATP 10 μM and MgCl2 5 mM. After incubation for 10 min at room temperature, the reaction is stopped with a mix of 30 μl to obtain a final solution of Hepes 50 mM pH 7.5, potassium fluoride 500 mM, BSA 0.1% and EDTA 133 mM in the presence of 80 ng Streptavidin 61SAXLB Cis-Bio Int. and 18 ng anti-phosphotyrosine Mab PT66-Europium Cryptate per well. After 2 hours of incubation at room temperature, reading is carried out at 2 wavelengths 620 nm and 665 nm in a reader for the TRACE/HTRF technique and the percentage inhibition is calculated according to the 665/620 ratios.

Sequence of RON (Q04912 25-1400): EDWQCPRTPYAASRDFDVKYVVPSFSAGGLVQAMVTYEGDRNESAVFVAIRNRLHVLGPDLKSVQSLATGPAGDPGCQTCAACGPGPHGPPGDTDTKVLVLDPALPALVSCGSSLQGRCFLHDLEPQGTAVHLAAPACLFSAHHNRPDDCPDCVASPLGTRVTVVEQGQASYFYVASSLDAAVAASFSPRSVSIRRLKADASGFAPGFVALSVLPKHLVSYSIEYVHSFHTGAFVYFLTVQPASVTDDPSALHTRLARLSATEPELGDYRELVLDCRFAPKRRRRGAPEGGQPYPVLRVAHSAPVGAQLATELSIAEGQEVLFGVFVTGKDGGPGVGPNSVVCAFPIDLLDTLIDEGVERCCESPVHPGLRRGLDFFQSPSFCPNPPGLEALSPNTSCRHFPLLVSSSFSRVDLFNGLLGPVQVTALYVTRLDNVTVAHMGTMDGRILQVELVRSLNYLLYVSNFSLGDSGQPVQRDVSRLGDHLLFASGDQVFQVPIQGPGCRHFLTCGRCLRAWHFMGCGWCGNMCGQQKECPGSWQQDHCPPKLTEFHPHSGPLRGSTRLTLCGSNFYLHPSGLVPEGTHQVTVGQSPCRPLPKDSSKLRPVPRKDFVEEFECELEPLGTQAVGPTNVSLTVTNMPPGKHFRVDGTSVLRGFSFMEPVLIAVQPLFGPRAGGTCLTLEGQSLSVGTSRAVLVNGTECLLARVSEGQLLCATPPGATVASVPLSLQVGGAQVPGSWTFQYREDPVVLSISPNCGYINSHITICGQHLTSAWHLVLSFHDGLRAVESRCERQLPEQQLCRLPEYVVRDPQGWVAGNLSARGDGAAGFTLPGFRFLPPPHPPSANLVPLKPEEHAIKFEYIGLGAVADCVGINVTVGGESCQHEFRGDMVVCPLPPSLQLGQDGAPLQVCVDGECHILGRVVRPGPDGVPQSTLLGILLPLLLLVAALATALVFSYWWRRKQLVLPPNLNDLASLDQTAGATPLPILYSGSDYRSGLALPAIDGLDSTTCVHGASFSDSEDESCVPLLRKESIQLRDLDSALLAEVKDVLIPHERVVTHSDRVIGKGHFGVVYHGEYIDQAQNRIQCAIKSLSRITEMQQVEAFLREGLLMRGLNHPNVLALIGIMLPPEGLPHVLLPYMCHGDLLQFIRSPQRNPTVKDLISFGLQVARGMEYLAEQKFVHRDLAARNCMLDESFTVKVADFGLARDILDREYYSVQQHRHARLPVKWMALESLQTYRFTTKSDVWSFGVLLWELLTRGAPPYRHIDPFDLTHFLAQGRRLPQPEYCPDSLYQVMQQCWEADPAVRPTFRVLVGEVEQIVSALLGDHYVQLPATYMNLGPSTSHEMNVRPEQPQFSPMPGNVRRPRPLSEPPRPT

melting point [°C]	IC50 (RON) [µM]	IC50 (MKN45 cells) [µM]	IC50 (c-MET) [µM]	SMILES
223	0.5 to 10	> 10	< 0.1	CC(Oc1cc2sc(N)nc2cc1F)c1c(Cl)ccc(F)c1Cl (centres unmarked) [Example 30, 6-[1-(2,6-dichloro-3-fluorophenyl)ethoxy]-5-fluoro-1,3-benzothiazol-2-amine]
256 to 259	0.5 to 10	> 10	< 0.1	O=C(NCCN1CCOCC1)Nc1nc2ccc(OCc3c(Cl)cccc3Cl)cc2[nH]1 [Example 1, 1-{6-[(2,6-dichlorobenzyl)oxy]-1H-benzimidazol-2-yl}-3-(2-morpholin-4-ylethyl)urea]
219	0.5 to 10	> 10	< 0.1	O=C(NCCN1CCOCC1)Nc1nc2ccc(OCc3c(F)cccc3F)cc2s1 [Example 13, 1-{6-[(2,6-difluorobenzyl)oxy]-1,3-benzothiazol-2-yl}-3-(2-morpholin-4-ylethyl)urea]
186 to 195	0.5 to 10	0.5 to 10	< 0.1	CC(Oc1cc2sc(NC(=O)NCCN3CCCCC3)nc2cc1F)c1c(Cl)ccc(F)c1Cl (centres unmarked) [Example 80, 1-{6-[1-(2,6-dichloro-3-fluorophenyl)ethoxy]-5-fluoro-1,3-benzothiazol-2-yl}-3-[2-(piperidin-1-yl)ethyl]urea]
162 to 166	0.5 to 10	> 10	< 0.1	O=C(NCCCN1CCOCC1)Nc1nc2ccc(OCc3c(Cl)cccc3Cl)cc2s1 [Example 11, 1-{6-[(2,6-dichlorobenzyl)oxy]-1,3-benzothiazol-2-yl}-3-(3-morpholin-4-ylpropyl)urea]
161	0.5 to 10	> 10	0.1 to 10	CC(Oc1ccc2nc(NC(=O)NCCN3CCOCC3)sc2c1)c1ccccc1 (centres unmarked) [Example 14, 1-(2-morpholin-4-ylethyl)-3-[6-(1-phenylethoxy)-1,3-benzothiazol-2-yl]urea]
210	0.5 to 10	0.5 to 10	< 0.1	O=C(NCCN1CCOCC1)Nc1nc2ccc(OCc3c(F)cccc3Cl)cc2s1 [Example 15, 1-{6-[(2-chloro-6-fluorobenzyl)oxy]-1,3-benzothiazol-2-yl}-3-(2-morpholin-4-ylethyl)urea]
179	0.5 to 10	> 10	0.1 to 10	CC(Oc1ccc2nc(NC(=O)NCCN3CCOCC3)sc2c1)c1cc(F)cc(F)c1 (centres unmarked) [Example 62, 1-{6-[1-(3,5-difluorophenyl)ethoxy]-1,3-benzothiazol-2-yl}-3-(2-morpholin-4-ylethyl)urea]
